Measured values from patent US11969423B2, “Compounds” (GLAXOSMITHKLINE INTELLECTUAL PROPERTY DEVELOPMENT LIMITED, priority 2017, dated 2024).

Test system: not given
Conditions: male, SD, in vivo
Description: Male SD rats (n=3/compound/route) were used for single intravenous and oral dose PK studies. Compounds were administered intravenously (infusion over 30 minutes) as a solution (Formulation: 5% DMSO: 20% Encapsine in saline; target dose 1 mg/kg) and orally as suspensions (Formulation: 1% Methyl Cellulose; target dose 5 mg/kg). After dosing, blood samples ([…]) were collected. Sampling times were the following:
0.25, 0.5 (just before end of infusion), 0.58, 0.75, 1, 1.5, 2, 3, 5, 7, and 24 hours; n=3 rats (intravenous infusion administration) 0.25, 0.5, 1, 2, 4, 6, 8, and 24 hours; n=3 rats (oral gavage administration)
All the blood samples were diluted with 25 μL of water and stored at −80° C. until analysis. Rat blood samples were analyzed for each compound using a method upon protein precipitation followed by LC-MS/MS analysis. All pharmacokinetic parameters were obtained by non-compartmental analysis of the different blood concentration-time profiles using WinNonLin Phoenix Version 6.3.

First: O=C(CCC(F)(F)F)N1CCC(c2cncc(Cl)c2)CC1 [Example 30, 1-(4-(5-chloropyridin-3-yl)piperidin-1-yl)-4,4,4-trifluorobutan-1-one]
Second: O=C(CCC(F)(F)F)N1CCC(c2ccnc(C(F)(F)F)c2)CC1 [Example 18, 4,4,4-trifluoro-1-(4-(2-(trifluoromethyl)pyridin-4-yl)piperidin-1-yl)butan-1-one]
The “F % (rat, 5 mg/kg)” value of the first is higher: 77% for the first, 75% for the second.

Test system: not given
Conditions: male, Swiss (Crl:CD-1(ICR)), mouse, in vivo

Compared with `O=C(CCC(F)(F)F)N1CCC(c2cncc(Cl)c2)CC1` [Example 30, 1-(4-(5-chloropyridin-3-yl)piperidin-1-yl)-4,4,4-trifluorobutan-1-one], `O=C(CCC(F)(F)F)N1CCC(c2ccnc(C(F)(F)F)c2)CC1` [Example 18, 4,4,4-trifluoro-1-(4-(2-(trifluoromethyl)pyridin-4-yl)piperidin-1-yl)butan-1-one] is higher in “Mice liver hypertrophy (%)” value: 2% for the first, 6% for the second.

Test system: PPAR marker
Conditions: male, Swiss (Crl:CD-1(ICR)), mouse

For `O=C(CCC(F)(F)F)N1CCC(c2cncc(Cl)c2)CC1` [Example 30, 1-(4-(5-chloropyridin-3-yl)piperidin-1-yl)-4,4,4-trifluorobutan-1-one], the “In vivo PPAR marker fold increase” value was <2 fold.
In the case of `O=C(CCC(F)(F)F)N1CCC(c2ccnc(C(F)(F)F)c2)CC1` [Example 18, 4,4,4-trifluoro-1-(4-(2-(trifluoromethyl)pyridin-4-yl)piperidin-1-yl)butan-1-one], the “In vivo PPAR marker fold increase” value is reported as <6 fold.

Test system: M. tuberculosis H37Rv-GFP
Type: cell-based, Mycobacterium tuberculosis
Conditions: read-out: EC50_H37Rv

First: O=C(CCC(F)(F)F)N1CCC(F)(c2cc(C(F)(F)F)ccn2)CC1 [Example 39, 4,4,4-trifluoro-1-[4-fluoro-4-[4-(trifluoromethyl)-2-pyridyl]-1-piperidyl]butan-1-one]
Second: O=C(CCC(F)(F)F)N1CCC(F)(c2ccnc(C(F)(F)F)c2)CC1 [Example 35, 4,4,4-trifluoro-1-(4-fluoro-4-(2-(trifluoromethyl)pyridin-4-yl)piperidin-1-yl)butan-1-one]
The EC50 of the first is higher: 50 to 250 nM for the first, < 50 nM for the second. The second is the more potent here.

`O=C(CCC(F)(F)F)N1CCC(c2cccc(Cl)n2)CC1` [Example 27, 1-(4-(6-chloropyridin-2-yl)piperidin-1-yl)-4,4,4-trifluorobutan-1-one] and `O=C(CCC(F)(F)F)N1CCC(c2cccc(F)n2)CC1` [Example 9, 4,4,4-trifluoro-1-[4-(6-fluoro-2-pyridyl)-1-piperidyl]butan-1-one] fall in the same range of EC50: 50 to 250 nM for the first, 50 to 250 nM for the second.

Compared with `O=C(CCC(F)(F)F)N1CCC(F)(c2cncc(Cl)n2)CC1` [Example 36, 1-(4-(6-chloropyrazin-2-yl)-4-fluoropiperidin-1-yl)-4,4,4-trifluorobutan-1-one], `O=C(CCC(F)(F)F)N1CCC(F)(c2cncc(Cl)c2)CC1` [Example 29, 1-(4-(5-chloropyridin-3-yl)-4-fluoropiperidin-1-yl)-4,4,4-trifluorobutan-1-one] is lower in EC50: 50 to 250 nM for the first, < 50 nM for the second. The second is the more potent here.

`Cc1cc(C2CCN(C(=O)CCC(F)(F)F)CC2)ccn1` [Example 22, 4,4,4-trifluoro-1-(4-(2-methylpyridin-4-yl)piperidin-1-yl)butan-1-one] and `O=C(CCC(F)(F)F)N1CCC(c2ccnc(F)c2)CC1` [Example 20, 4,4,4-trifluoro-1-(4-(2-fluoropyridin-4-yl)piperidin-1-yl)butan-1-one] cannot be ordered by EC50: < 50 nM for the first, < 50 nM for the second.

`O=C(CCC(F)(F)F)N1CCC(c2cc(C(F)(F)F)ccn2)CC1` [Example 6, 4,4,4-trifluoro-1-[4-[4-(trifluoromethyl)-2-pyridyl]-1-piperidyl]butan-1-one] and `O=C(CCC(F)(F)F)N1CCC(c2ccnc(C(F)(F)F)c2)CC1` [Example 18, 4,4,4-trifluoro-1-(4-(2-(trifluoromethyl)pyridin-4-yl)piperidin-1-yl)butan-1-one] cannot be ordered by EC50: < 50 nM for the first, < 50 nM for the second.

First: O=C(CCC(F)(F)F)N1CCC(c2cnc(F)c(F)c2)CC1 [Example 23, 1-(4-(5,6-difluoropyridin-3-yl)piperidin-1-yl)-4,4,4-trifluorobutan-1-one]
Second: O=C(CCC(F)(F)F)N1CCC(c2ncc(F)cc2F)CC1 [Example 13, 1-[4-(3,5-difluoro-2-pyridyl)-1-piperidyl]-4,4,4-trifluoro-butan-1-one]
The EC50 of the first is lower: < 50 nM for the first, 50 to 250 nM for the second.

Compared with `O=C(CCC(F)(F)F)N1CCC(c2cccnn2)CC1` [Example 19, 4,4,4-trifluoro-1-[4-(pyridazin-3-yl)piperidin-1-yl]butan-1-one], `O=C(CCC(F)(F)F)N1CCC(c2cnccn2)CC1` [Example 1, 4,4,4-trifluoro-1-(4-pyrazin-2-yl-1-piperidyl)butan-1-one] is lower in EC50: 1000 to 10000 nM for the first, 500 to 1000 nM for the second.

First: O=C(CCC(F)(F)F)N1CCC(c2cccnc2C(F)(F)F)CC1 [Example 11, 4,4,4-trifluoro-1-[4-[2-(trifluoromethyl)-3-pyridyl]-1-piperidyl]butan-1-one]
Second: O=C(CCC(F)(F)F)N1CCC(c2cccc(C(F)(F)F)n2)CC1 [Example 8, 4,4,4-trifluoro-1-[4-[6-(trifluoromethyl)-2-pyridyl]-1-piperidyl]butan-1-one]
The EC50 of the first is higher: 1000 to 10000 nM for the first, 50 to 250 nM for the second. The second is the more potent here.

Compared with `O=C(CCC(F)(F)F)N1CCC(c2cncc(C(F)(F)F)c2)CC1` [Example 7, 4,4,4-trifluoro-1-[4-[5-(trifluoromethyl)-3-pyridyl]-1-piperidyl]butan-1-one], `O=C(CCC(F)(F)F)N1CCC(c2cncc(F)c2)CC1` [Example 3, 4,4,4-trifluoro-1-[4-(5-fluoro-3-pyridyl)-1-piperidyl]butan-1-one] is higher in EC50: < 50 nM for the first, 50 to 250 nM for the second.

`O=C(CCC(F)(F)F)N1CCC(F)(c2ccnc(Cl)c2)CC1` [Example 41] and `O=C(CCC(F)(F)F)N1CCC(F)(c2ccnc(F)c2)CC1` [Example 37, 4,4,4-trifluoro-1-(4-fluoro-4-(2-fluoropyridin-4-yl)piperidin-1-yl)butan-1-one] cannot be ordered by EC50: < 50 nM for the first, < 50 nM for the second.

Compared with `O=C(CCC(F)(F)F)N1CCC(F)(c2ccccn2)CC1` [Example 33, 4,4,4-trifluoro-1-(4-fluoro-4-(pyridin-2-yl)piperidin-1-yl)butan-1-one], `O=C(CCC(F)(F)F)N1CCC(F)(c2cccnc2)CC1` [Example 2, 4,4,4-trifluoro-1-[4-fluoro-4-(3-pyridyl)-1-piperidyl]butan-1-one] is lower in EC50: 50 to 250 nM for the first, < 50 nM for the second. The second is the more potent here.

First: O=C(CCC(F)(F)F)N1CCC(c2cncc(Cl)c2)CC1 [Example 30, 1-(4-(5-chloropyridin-3-yl)piperidin-1-yl)-4,4,4-trifluorobutan-1-one]
Second: O=C(CCCC(F)(F)F)N1CCC(c2cncc(Cl)c2)CC1 [Example 31, 1-(4-(5-chloropyridin-3-yl)piperidin-1-yl)-5,5,5-trifluoropentan-1-one]
The EC50 of the first is lower: < 50 nM for the first, 50 to 250 nM for the second. The first is the more potent here.

First: O=C(CCC(F)(F)F)N1CCC(F)(c2ccc(F)nc2)CC1 [Example 40]
Second: O=C(CCC(F)(F)F)N1CCC(F)(c2cncc(C(F)(F)F)c2)CC1 [Example 34, 4,4,4-trifluoro-1-(4-fluoro-4-(5-(trifluoromethyl)pyridin-3-yl)piperidin-1-yl)butan-1-one]
The EC50 of the first is higher: 50 to 250 nM for the first, < 50 nM for the second.

Compared with `O=C(CCC(F)(F)F)N1CCC(c2ccc(F)cn2)CC1` [Example 17, 4,4,4-trifluoro-1-[4-(5-fluoro-2-pyridyl)-1-piperidyl]butan-1-one], `O=C(CCC(F)(F)F)N1CCC(c2ccc(F)nc2)CC1` [Example 4, 4,4,4-trifluoro-1-[4-(6-fluoro-3-pyridyl)-1-piperidyl]butan-1-one] is higher in EC50: < 50 nM for the first, 50 to 250 nM for the second. The first is the more potent here.

`O=C(CCC(F)(F)F)N1CCC(c2ccc(C(F)(F)F)nc2)CC1` [Example 5, 4,4,4-trifluoro-1-[4-[6-(trifluoromethyl)-3-pyridyl]-1-piperidyl]butan-1-one] and `O=C(CCC(F)(F)F)N1CCC(c2cnc(C(F)(F)F)cn2)CC1` [Example 21, 4,4,4-trifluoro-1-(4-(5-(trifluoromethyl)pyrazin-2-yl)piperidin-1-yl)butan-1-one] fall in the same range of EC50: 500 to 1000 nM for the first, 500 to 1000 nM for the second.

`O=C(CCC(F)(F)F)N1CCC(c2ccncc2F)CC1` [Example 26, 4,4,4-trifluoro-1-(4-(3-fluoropyridin-4-yl)piperidin-1-yl)butan-1-one] and `O=C(CCC(F)(F)F)N1CCC(c2ccc(F)nc2F)CC1` [Example 14, 1-[4-(2,6-difluoro-3-pyridyl)-1-piperidyl]-4,4,4-trifluoro-butan-1-one] fall in the same range of EC50: 50 to 250 nM for the first, 50 to 250 nM for the second.

First: O=C(CCC(F)(F)F)N1CCC(c2nccc(C(F)(F)F)n2)CC1 [Example 15]
Second: O=C(CCC(F)(F)F)N1CCC(c2cncc(C(F)(F)F)n2)CC1 [Example 24, 4,4,4-trifluoro-1-(4-(6-(trifluoromethyl)pyrazin-2-yl)piperidin-1-yl)butan-1-one]
The EC50 of the first is higher: 1000 to 10000 nM for the first, 50 to 250 nM for the second. The second is the more potent here.

First: COc1ccc(C2CCN(C(=O)CCC(F)(F)F)CC2)cn1 [Example 10, 4,4,4-trifluoro-1-[4-(6-methoxy-3-pyridyl)-1-piperidyl]butan-1-one]
Second: COc1cncc(C2CCN(C(=O)CCC(F)(F)F)CC2)c1 [Example 12, 4,4,4-trifluoro-1-[4-(5-methoxy-3-pyridyl)-1-piperidyl]butan-1-one]
The EC50 of the first is lower: 50 to 250 nM for the first, 500 to 1000 nM for the second.

`O=C(CCC(F)(F)F)N1CCC(c2ccnc(Cl)c2)CC1` [Example 25, 1-(4-(2-chloropyridin-4-yl)piperidin-1-yl)-4,4,4-trifluorobutan-1-one] and `O=C(CCC(F)(F)F)N1CCC(c2cncc(Cl)n2)CC1` [Example 32, 1-(4-(6-chloropyrazin-2-yl)piperidin-1-yl)-4,4,4-trifluorobutan-1-one] cannot be ordered by EC50: < 50 nM for the first, < 50 nM for the second.

First: O=C(CCC(F)(F)F)N1CCC(c2cncc(Cl)c2)C1 (centres unmarked) [Example 38, 1-(3-(5-chloropyridin-3-yl)pyrrolidin-1-yl)-4,4,4-trifluorobutan-1-one]
Second: O=C(CCC(F)(F)F)N1CCC(c2cncnc2)CC1 [Example 16]
The EC50 of the first is lower: < 50 nM for the first, 1000 to 10000 nM for the second.

For `O=C(CCC(F)(F)F)N1CCC(c2ncccn2)CC1` [Example 28, 4,4,4-trifluoro-1-[4-(pyrimidin-2-yl)piperidin-1-yl]butan-1-one], the EC50 was 1000 to 10000 nM.
